pIC50: −log10 of the molar value.
Legend:
[1] = molecular target: T1, Human KIF18A (amino acid sequence 1-417) (Homo sapiens, UniProt Q8NI77); experiment: Enzyme activity detection experiment (ADP-Glo, KIF18A with tubulin and ATP); assay type: biochemical; details: tubulin 60 μg/mL, ATP 25 μM, KIF18A protein 2.5 nM, 120 minutes at ambient temperature, ADP-Glo chemiluminescence
T1 construct: purchased Viva Biotech (Shanghai) Ltd
Outline: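 KIF18A (2.5 nM) was incubated with tubulin (60 μg/mL as added), ATP (25 μM) and serially diluted compound for 120 min at ambient temperature. ADP formed was detected by ADP-Glo: reagent for 30 min, then detection reagent for 30 min in the dark, with chemiluminescence read-out.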

HT29 cells = experiment: CyQuant cell proliferation activity test, HT29; assay type: cell-based; details: Homo sapiens, HT-29, 72 h, HT29 2000 cells per well, 3 days incubation, initial concentration 3000 nM, IC50 by XLFIT, read-out: HT-29 Cell Viability_IC50_nM
Outline: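 HT29 cells (2000/well, RPMI-1640 with 10% FBS) were plated overnight, then exposed to compound for 3 days at 37 °C, 5% CO2. Dosing was 9 concentrations, 3-fold dilutions from 3000 nM, in 0.20% DMSO. Proliferation was read with CyQuant reagent after 1 h, and IC50 derived from the curves.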

OVCAR3 cells = experiment: Cell proliferation activity test, OVCAR3 (CyQUANT Direct); assay type: cell-based; details: Homo sapiens, OVCAR-3, 72 h, 3 days incubation, CyQUANT fluorescence detection, read-out: OVCAR-3 Cell Viability_IC50_nM
Outline: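 OVCAR3 cells seeded overnight, then exposed to compounds at 0-10 μM final (0.20% DMSO) for 3 days at 37° C. Cell number read by CyQUANT Direct fluorescence after 60 min at 37° C.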

T1 sequence (Q8NI77 1-417): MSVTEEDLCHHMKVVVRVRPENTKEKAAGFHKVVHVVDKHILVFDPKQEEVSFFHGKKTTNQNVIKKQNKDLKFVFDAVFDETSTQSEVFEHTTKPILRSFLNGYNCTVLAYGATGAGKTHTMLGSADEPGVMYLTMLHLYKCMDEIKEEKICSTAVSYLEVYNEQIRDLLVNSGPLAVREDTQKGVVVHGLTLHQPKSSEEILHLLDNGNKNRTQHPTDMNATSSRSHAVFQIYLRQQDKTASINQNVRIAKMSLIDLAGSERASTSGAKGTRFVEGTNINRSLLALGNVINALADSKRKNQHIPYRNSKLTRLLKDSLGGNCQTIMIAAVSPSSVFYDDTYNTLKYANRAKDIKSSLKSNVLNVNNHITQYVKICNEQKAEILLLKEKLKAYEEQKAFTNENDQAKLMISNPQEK
T1 sequence (Q2XVP4 whole entry partner): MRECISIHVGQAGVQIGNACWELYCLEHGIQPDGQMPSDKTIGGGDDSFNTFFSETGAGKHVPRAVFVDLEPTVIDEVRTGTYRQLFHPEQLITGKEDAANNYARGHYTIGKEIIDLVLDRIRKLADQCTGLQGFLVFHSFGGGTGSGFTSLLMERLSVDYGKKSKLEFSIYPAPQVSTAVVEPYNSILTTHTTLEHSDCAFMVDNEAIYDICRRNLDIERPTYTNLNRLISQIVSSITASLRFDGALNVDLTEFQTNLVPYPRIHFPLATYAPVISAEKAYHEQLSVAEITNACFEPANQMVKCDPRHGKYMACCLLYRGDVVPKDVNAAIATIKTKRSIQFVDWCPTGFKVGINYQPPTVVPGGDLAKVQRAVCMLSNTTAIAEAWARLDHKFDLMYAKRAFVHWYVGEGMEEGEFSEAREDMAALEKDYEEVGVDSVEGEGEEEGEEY
T1 sequence (P02554 whole entry partner): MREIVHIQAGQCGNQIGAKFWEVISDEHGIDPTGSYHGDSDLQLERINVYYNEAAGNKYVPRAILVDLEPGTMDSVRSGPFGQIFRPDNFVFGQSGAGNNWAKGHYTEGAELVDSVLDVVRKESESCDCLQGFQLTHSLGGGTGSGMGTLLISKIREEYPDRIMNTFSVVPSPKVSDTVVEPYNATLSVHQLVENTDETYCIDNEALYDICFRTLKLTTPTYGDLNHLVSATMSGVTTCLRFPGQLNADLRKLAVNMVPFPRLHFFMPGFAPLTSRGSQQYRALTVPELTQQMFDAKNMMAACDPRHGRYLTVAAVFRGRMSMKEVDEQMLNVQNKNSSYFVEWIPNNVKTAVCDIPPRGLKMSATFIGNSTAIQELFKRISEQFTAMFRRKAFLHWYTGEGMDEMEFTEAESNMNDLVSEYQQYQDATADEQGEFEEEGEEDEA

Row | pIC50 [1] | pIC50 (HT29 cells) | pIC50 (OVCAR3 cells) | Compound
1 | < 5.52 | 6.25 | 6.33 | Cc1cc(-n2cnc(-c3ccc(NS(=O)(=O)CCO)cc3N3CCC4(CC3)CC4)c2)nc(N2CCC(F)(F)CC2)n1 [Example 12, N-(4-(1-(2-(4,4-difluoropiperidin-1-yl)-6-methylpyrimidin-4-yl)-1H-imidazol-4-yl)-3-(6-azaspiro[2.5]octan-6-yl)phenyl)-2-hydroxyethane-1-sulfonamide]
2 | 6.61 | 5.82 | 6.14 | Cc1cc(-c2nnc(-c3ccc(NS(=O)(=O)CCO)cc3N3CCC4(CC3)CC4)o2)nc(NC(C)(C)CO)n1 [Example 16, 2-hydroxy-N-(4-(5-(2-((1-hydroxy-2-methylpropan-2-yl)amino)-6-methylpyrimidin-4-yl)-1,3,4-oxadiazol-2-yl)-3-(6-azaspiro[2.5]octan-6-yl)phenyl)ethane-1-sulfon amide]
3 | 6.15 | 7.52 | 7.70 | Nc1nc2c(N3CCC(F)(F)CC3)c(F)c(-c3cn(-c4ccc(NS(=O)(=O)CCO)cc4N4CCC5(CC4)CC5)nn3)cc2s1 [Example 81, N-(4-{4-[2-amino-4-(4,4-difluoropiperidin-1-yl)-5-fluoro-1,3-benzothiazol-6-yl]-1H-1,2,3-triazol-1-yl}-3-{6-azaspiro[2.5]octan-6-yl}phenyl)-2-hydroxyethane-1-sulfonamide]
4 | 6.96 | 8.10 | 8.05 | CNc1cc(-c2cn(-c3ccc(NS(=O)(=O)CCO)cc3N3CCC4(CC3)CC4)nn2)nc(N2CCC(F)(F)CC2)n1 [Example 56, N-(3-{6-azaspiro[2.5]octan-6-yl}-4-{4-[2-(4,4-difluoropiperidin-1-yl)-6-(methylamino)pyrimidin-4-yl]-1H-1,2,3-triazol-1-yl}phenyl)-2-hydroxyethane-1-sulfonamide]
5 | 6.32 | 7.59 | 7.68 | Nc1ccc2cc(-c3cn(-c4ccc(NS(=O)(=O)CCO)cc4N4CCC5(CC4)CC5)nn3)c(F)c(N3CCC(F)(F)CC3)c2n1 [Example 80, N-(4-{4-[2-amino-8-(4,4-difluoropiperidin-1-yl)-7-fluoroquinolin-6-yl]-1H-1,2,3-triazol-1-yl}-3-{6-azaspiro[2.5]octan-6-yl}phenyl)-2-hydroxyethane-1-sulfonamide]
6 | 6.55 | 7.64 | 7.82 | O=S(=O)(CCO)Nc1ccc(-n2cc(-c3ccc(-c4cccnc4)c(N4CCC(F)(F)CC4)n3)nn2)c(N2CCC3(CC2)CC3)c1 [Example 82, N-(3-{6-azaspiro[2.5]octan-6-yl}-4-{4-[2-(4,4-difluoropiperidin-1-yl)-[3,3′-bipyridyl]-6-yl]-1H-1,2,3-triazol-1-yl}phenyl)-2-hydroxyethane-1-sulfonamide]
7 | 6.11 | 6.54 | 6.65 | O=S(=O)(CCO)Nc1ccc(-n2cc(-c3cc(NC4CCOCC4)nc(N4CCC(F)(F)CC4)n3)nn2)c(N2CCC3(CC2)CC3)c1 [Example 58, N-(3-{6-azaspiro[2,5]octan-6-yl}-4-{4-[2-(4,4-difluoropiperidin-1-yl)-6-[(oxan-4-yl)amino]pyrimidin-4-yl]-1H-1,2,3-triazol-1-yl}phenyl)-2-hydroxyethane-1-sulfonamide]
8 | 6.11 | 6.60 | 6.30 | Cc1cc(-c2nnn(-c3ccc(NS(=O)(=O)CCO)cc3N3CCC4(CC3)CC4)n2)nc(N2CCC(F)(F)CC2)n1 [Example 8, N-(4-(5-(2-(4,4-difluoropiperidin-1-yl)-6-methylpyrimidin-4-yl)-2H-tetrazol-2-yl)-3-(6-azaspiro[2.5]octan-6-yl)phenyl)-2-hydroxyethane-1-sulfonamide]
9 | 6.60 | 6.50 | 6.79 | COc1cc(-c2cn(-c3ccc(NS(=O)(=O)CCO)cc3N3CCC4(CC3)CC4)cn2)nc(N2CCC(F)(F)CC2)n1 [Example 11, N-(4-(4-(2-(4,4-difluoropiperidin-1-yl)-6-methoxypyrimidin-4-yl)-1H-imidazol-1-yl)-3-(6-azaspiro[2.5]octan-6-yl)phenyl)-2-hydroxyethane-1-sulfonamide]
10 | 6.63 | 7.30 | 7.03 | Cc1cc(-n2cc(-c3ccc(NS(=O)(=O)[C@H](C)CO)cc3N3CCC4(CC3)CC4)nn2)nc(N2CCC(F)(F)CC2)n1 [Example 92, (2R)—N-(3-{6-azaspiro[2.5]octan-6-yl}-4-{1-[2-(4,4-difluoropiperidin-1-yl)-6-methylpyrimidin-4-yl]-1H-1,2,3-triazol-4-yl}phenyl)-1-hydroxypropane-2-sulfonamide]
11 | 6.36 | 6.82 | 6.97 | COc1cc(-c2cn(-c3ccc(NS(=O)(=O)CCO)cc3N3CCC4(CC3)CC4)nn2)c(F)c(N2CCC(F)(F)CC2)n1 [Example 63, N-(4-(4-(2-(4,4-difluoropiperidin-1-yl)-3-fluoro-6-methoxypyridin-4-yl)-1H-1,2,3-triazol-1-yl)-3-(6-azaspiro[2.5]octan-6-yl)phenyl)-2-hydroxyethane-1-sulfonamide]
12 | 6.72 | 7.60 | 7.70 | O=S(=O)(CCO)Nc1ccc(-n2cc(-c3cc(N4CCC(F)(F)CC4)c4ncccc4c3)nn2)c(N2CCC3(CC2)CC3)c1 [Example 72, N-(4-(4-(8-(4,4-difluoropiperidin-1-yl)quinolin-6-yl)-1H-1,2,3-triazol-1-yl)-3-(6-azaspiro[2.5]octan-6-yl)phenyl)-2-hydroxyethane-1-sulfonamide]
13 | 7.06 | 7.89 | 7.66 | Cc1cc(-c2cn(-c3ccc(NS(=O)(=O)CCO)cc3N3CCC4(CC3)CC4)nn2)nc(N2CCOCC2C)n1 (stereo not drawn) [Example 45]
14 | 7.21 | 7.27 | 7.28 | Cc1cc(-c2cn(-c3ccc(NS(=O)(=O)CCO)nc3N3CCC4(CC3)CC4)nn2)nc(N2CCC(F)(F)CC2)n1 [Example 66, N-(6-{6-azaspiro[2.5]octan-6-yl}-5-{4-[2-(4,4-difluoropiperidin-1-yl)-6-methylpyrimidin-4-yl]-1H-1,2,3-triazol-1-yl}pyridin-2-yl)-2-hydroxyethane-1-sulfonamide]
15 | 6.82 | 7.41 | 7.85 | Cc1cc(-c2cn(-c3ccc(NS(=O)(=O)CCO)cc3N3CCC4(CC3)CC4)nn2)nc(N2[C@H](C)COC[C@@H]2C)n1 [Example 46, N-(4-(4-(2-((3S,5R)-3,5-dimethylmorpholin)-6-methylpyrimidin-4-yl)-1H-1,2,3-triazol-1-yl)-3-(6-azaspiro[2.5]octan-6-yl)phenyl)2-hydroxyethanesulfonamide]
16 | 6.56 | 7.14 | 7.08 | CN(C)c1cc(-c2cn(-c3ccc(NS(=O)(=O)CCO)cc3N3CCC4(CC3)CC4)nn2)nc(N2CCC(F)(F)CC2)n1 [Example 54, N-(3-{6-azaspiro[2.5]octan-6-yl}-4-{4-[2-(4,4-difluoropiperidin-1-yl)-6-(dimethylamino)pyrimidin-4-yl]-1H-1,2,3-triazol-1-yl}phenyl)-2-hydroxyethane-1-sulfonamide]
17 | 7.92 | 7.72 | 7.60 | Cc1cc(-c2cn(-c3cnc(NS(=O)(=O)CCO)cc3N3CCC4(CC3)CC4)nn2)nc(N2CCC(F)(F)CC2)n1 [Example 67, N-(4-{6-azaspiro[2.5]octan-6-yl}-5-{4-[2-(4,4-difluoropiperidin-1-yl)-6-methylpyrimidin-4-yl]-1H-1,2,3-triazol-1-yl}pyridin-2-yl)-2-hydroxyethane-1-sulfonamide]
18 | 7.21 | 7.19 | 7.47 | O=S(=O)(CCO)Nc1ccc(-c2nnc(-c3cc4ccoc4c(N4CCC(F)(F)CC4)n3)o2)c(N2CCC3(CC2)CC3)c1 [Example 33]
19 | 7.42 | 7.11 | 7.21 | Cc1cc(-c2nnc(-c3ccc(NS(=O)(=O)CCO)cc3N3CCC4(CC3)CC4)[nH]2)nc(N2CCC(F)(F)CC2)n1 [Example 4, N-(4-(5-(2-(4,4-difluoropiperidin-1-yl)-6-methylpyrimidin-4-yl)-4H-1,2,4-triazol-3-yl)-3-(6-azaspiro[2.5]octan-6-yl)phenyl)-2-hydroxyethane-1-sulfonamide]
20 | 7.28 | 7.59 | 7.52 | Cc1cc(-c2nnc(-c3ccc(NS(=O)(=O)CCO)cc3N3CCC4(CC3)CC4)o2)nc(N2CCO[C@H](C)C2)n1 [Example 18, (R)-2-hydroxy-N-(4-(5-(6-methyl-2-(2-methylmorpholino)pyrimidin-4-yl)-1,3,4-oxadiazol-2-yl)-3-(6-azaspiro[2.5]octan-6-yl)phenyl)ethane-1-sulfonamide]
21 | < 5.52 | 6.20 | 6.32 | O=S(=O)(CCO)Nc1ccc(C=C(F)c2cc(N3CCC(F)(F)CC3)c3ncccc3c2)c(N2CCC3(CC2)CC3)c1 [Example 1, N-(4-(2-(8-(4,4-difluoropiperidin-1-yl)quinolin-6-yl)-2-fluorovinyl)-3-(6-azaspiro[2.5]octan-6-yl)phenyl)-2-hydroxyethane-1-sulfonamide]
